Measurements taken from patent US10485792B2, “Sustained release delivery systems for the prevention and treatment of head and neck cancers” (HADASIT MEDICAL RESEARCH SERVICES & DEVELOPMENT LIMITED, priority 2009, dated 2019).

Columns and labels:
[1] = Rapamycin stability in solution; format: physicochemical; details: known concentration solutions at 37° C. for 24 hours
Description: Rapamycin stability was evaluated by sampling known concentration solutions at 37° C. for 24 hours.

[2] = system: Oral Lichen Planus; details: cited from earlier work

Rapamycin stability [1]: No stability problems were observed
SMILES: CO[C@H]1C[C@@H]2CC[C@@H](C)[C@@](O)(O2)C(=O)C(=O)N2CCCC[C@H]2C(=O)O[C@H]([C@H](C)C[C@@H]2CC[C@@H](O)[C@H](OC)C2)CC(=O)[C@H](C)/C=C(\C)[C@@H](O)[C@@H](OC)C(=O)[C@H](C)C[C@H](C)/C=C/C=C/C=C/1C [Rapamycin]
Local side effect after first application ([2]; direct topical application to the diseased regions): tingling or burning sensations were encountered | Blood levels ([2]; direct topical application): negligible | Systemic adverse effects ([2]; direct topical application): no systemic adverse effects were encountered
